# pIC50, pKi: −log10 of the molar value.
# Experiments:
# Vasopressin V1a receptor = Vasopressin V1a receptor (Homo sapiens, UniProt P37288); assay type: cell membranes, Membrane; details: hek293; note: in other assays of this panel Not Active means under 50% inhibition at 10 µM
# Cytochrome P450 1A2 = target: T1, Cytochrome P450 1A2 (Homo sapiens, UniProt P05177); details: bti-tn-5b1-4; note: in other assays of this panel Not Active means under 50% inhibition at 10 µM
# T1 sequence (P05177 whole entry): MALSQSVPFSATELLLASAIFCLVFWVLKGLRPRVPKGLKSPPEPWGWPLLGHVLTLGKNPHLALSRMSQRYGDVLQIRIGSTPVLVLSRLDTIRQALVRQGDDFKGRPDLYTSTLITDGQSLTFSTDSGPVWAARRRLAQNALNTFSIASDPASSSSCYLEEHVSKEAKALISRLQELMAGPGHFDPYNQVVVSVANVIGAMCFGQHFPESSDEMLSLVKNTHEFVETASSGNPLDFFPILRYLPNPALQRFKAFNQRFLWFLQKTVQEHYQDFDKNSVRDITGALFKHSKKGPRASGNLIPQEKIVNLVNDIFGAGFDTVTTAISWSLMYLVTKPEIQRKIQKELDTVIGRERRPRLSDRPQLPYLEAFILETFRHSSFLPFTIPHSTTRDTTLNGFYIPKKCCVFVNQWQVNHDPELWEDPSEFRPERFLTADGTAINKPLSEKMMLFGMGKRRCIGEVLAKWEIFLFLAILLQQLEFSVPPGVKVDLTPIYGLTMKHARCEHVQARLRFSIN
# [1] = target: 5-hydroxytryptamine receptor 6 (Homo sapiens, UniProt P50406); assay type: cell membranes, HeLa, Membrane; details: hela; note: in other assays of this panel Not Active means under 50% inhibition at 10 µM
# Sequence of 5-hydroxytryptamine receptor 6 (P50406 whole entry): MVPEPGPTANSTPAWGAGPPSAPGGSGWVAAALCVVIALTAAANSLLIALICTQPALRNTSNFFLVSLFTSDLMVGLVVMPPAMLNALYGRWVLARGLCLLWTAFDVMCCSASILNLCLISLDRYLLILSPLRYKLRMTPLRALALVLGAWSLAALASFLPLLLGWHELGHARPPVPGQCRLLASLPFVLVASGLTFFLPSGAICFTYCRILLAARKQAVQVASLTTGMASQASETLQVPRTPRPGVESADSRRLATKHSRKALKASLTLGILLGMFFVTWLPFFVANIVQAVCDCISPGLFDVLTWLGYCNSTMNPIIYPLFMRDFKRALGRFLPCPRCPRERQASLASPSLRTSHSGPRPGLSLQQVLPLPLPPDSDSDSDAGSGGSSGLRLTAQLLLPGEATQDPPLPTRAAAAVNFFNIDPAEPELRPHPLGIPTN
# Melanocortin receptor 4 = Melanocortin receptor 4 (Homo sapiens, UniProt P32245); assay type: cell membranes, Membrane; details: hek293; note: in other assays of this panel Not Active means under 50% inhibition at 10 µM
# Sequence of Melanocortin receptor 4 (P32245 whole entry): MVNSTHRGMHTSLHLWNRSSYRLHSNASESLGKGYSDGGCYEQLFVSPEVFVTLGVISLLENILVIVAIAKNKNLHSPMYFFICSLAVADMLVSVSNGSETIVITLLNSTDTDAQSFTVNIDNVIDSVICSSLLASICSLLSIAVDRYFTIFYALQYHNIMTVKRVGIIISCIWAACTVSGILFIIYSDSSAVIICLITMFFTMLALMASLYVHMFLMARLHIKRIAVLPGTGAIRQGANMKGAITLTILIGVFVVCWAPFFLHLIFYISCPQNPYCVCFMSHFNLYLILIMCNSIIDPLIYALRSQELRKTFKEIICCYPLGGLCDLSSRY
# [2] = target: T2, Receptor-type tyrosine-protein phosphatase C (Homo sapiens, UniProt P08575); set-up: species or system Escherichia coli
# T2 sequence (P08575 whole entry): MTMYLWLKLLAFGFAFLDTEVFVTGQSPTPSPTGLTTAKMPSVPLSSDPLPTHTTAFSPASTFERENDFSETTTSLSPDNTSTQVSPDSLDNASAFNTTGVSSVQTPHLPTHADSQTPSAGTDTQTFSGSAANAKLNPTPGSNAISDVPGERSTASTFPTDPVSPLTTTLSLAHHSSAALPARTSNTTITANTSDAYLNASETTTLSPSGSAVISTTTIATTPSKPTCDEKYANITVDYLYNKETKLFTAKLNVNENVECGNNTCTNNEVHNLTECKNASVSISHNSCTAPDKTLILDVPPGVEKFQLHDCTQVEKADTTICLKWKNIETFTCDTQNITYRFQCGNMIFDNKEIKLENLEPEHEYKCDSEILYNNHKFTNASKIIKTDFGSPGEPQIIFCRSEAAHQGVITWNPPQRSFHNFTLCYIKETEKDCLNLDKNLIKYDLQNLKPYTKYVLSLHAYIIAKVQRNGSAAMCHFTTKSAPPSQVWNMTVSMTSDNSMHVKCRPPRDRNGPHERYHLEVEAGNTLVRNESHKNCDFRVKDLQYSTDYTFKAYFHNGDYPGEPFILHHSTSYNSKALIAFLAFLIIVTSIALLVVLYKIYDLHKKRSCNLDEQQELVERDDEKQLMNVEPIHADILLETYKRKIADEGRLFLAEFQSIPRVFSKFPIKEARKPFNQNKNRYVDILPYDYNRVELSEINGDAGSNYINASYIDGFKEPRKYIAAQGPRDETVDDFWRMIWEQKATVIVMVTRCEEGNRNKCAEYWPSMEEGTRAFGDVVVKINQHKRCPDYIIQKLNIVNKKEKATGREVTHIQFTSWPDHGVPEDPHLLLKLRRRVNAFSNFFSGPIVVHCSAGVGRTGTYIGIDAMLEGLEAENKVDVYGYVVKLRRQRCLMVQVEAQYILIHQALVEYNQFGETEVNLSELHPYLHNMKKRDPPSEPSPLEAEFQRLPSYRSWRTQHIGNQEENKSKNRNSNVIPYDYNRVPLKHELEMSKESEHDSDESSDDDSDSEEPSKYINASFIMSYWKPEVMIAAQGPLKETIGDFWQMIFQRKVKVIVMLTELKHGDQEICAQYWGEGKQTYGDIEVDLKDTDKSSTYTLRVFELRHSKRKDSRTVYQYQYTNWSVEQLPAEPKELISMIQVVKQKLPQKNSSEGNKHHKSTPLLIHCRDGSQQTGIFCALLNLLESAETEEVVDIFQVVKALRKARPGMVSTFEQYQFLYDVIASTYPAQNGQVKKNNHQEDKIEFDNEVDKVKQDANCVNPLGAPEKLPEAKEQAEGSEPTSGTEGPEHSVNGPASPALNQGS
# [3] = DRUGMATRIX: Tumor Necrosis Factor (TNF), Non-Selective radioligand binding (ligand: [125I] TNF-alpha); assay type: cell membranes, Membrane; details: u-937; Not Active = under 50% inhibition at 10 µM
# [4] = target: Beta-3 adrenergic receptor (Homo sapiens, UniProt P13945); assay: DRUGMATRIX: Adrenergic beta3 radioligand binding (ligand: [125I] Cyanopindolol); assay type: cell membranes, Membrane; details: hek293; Not Active = under 50% inhibition at 10 µM
# Sequence of Beta-3 adrenergic receptor (P13945 whole entry): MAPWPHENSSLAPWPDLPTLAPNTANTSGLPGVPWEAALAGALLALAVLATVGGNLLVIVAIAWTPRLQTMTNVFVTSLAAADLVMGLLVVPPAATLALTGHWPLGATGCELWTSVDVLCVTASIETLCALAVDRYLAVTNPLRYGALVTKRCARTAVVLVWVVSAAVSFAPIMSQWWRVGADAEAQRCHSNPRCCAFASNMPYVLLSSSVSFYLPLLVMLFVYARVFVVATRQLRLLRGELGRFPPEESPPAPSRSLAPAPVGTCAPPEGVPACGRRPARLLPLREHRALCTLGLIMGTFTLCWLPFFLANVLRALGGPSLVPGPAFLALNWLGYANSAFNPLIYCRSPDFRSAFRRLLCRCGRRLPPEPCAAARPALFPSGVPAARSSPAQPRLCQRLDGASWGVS
# Thromboxane-A synthase = target: T3, Thromboxane-A synthase (Homo sapiens, UniProt P24557); assay: biochemical; assay type: tissue-based, Platelet; details: for IC50: platelet
# T3 sequence (P24557 whole entry): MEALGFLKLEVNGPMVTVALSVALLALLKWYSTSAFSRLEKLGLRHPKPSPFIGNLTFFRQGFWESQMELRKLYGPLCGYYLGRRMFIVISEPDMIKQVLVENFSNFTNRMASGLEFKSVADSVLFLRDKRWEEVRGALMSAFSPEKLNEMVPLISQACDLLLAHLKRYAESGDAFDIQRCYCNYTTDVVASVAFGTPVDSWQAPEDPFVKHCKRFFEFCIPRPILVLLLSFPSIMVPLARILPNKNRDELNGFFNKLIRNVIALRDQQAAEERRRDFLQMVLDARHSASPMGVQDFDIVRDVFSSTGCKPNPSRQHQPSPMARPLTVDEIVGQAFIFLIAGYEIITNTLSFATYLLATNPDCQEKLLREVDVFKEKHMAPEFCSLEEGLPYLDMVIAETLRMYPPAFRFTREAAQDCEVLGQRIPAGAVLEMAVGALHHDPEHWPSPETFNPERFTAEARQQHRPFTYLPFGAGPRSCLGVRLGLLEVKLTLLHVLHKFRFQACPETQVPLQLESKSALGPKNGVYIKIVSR
# [5] = DRUGMATRIX: Glutamate, Kainate radioligand binding (ligand: [3H] Kainic acid); assay type: cell membranes, Rattus norvegicus, Wistar, Brain, Membrane; details: Not Active = under 50% inhibition at 10 µM
# Estrogen receptor beta = Estrogen receptor beta (Homo sapiens, UniProt Q92731); details: sf9; note: in other assays of this panel Not Active means under 50% inhibition at 10 µM
# Sequence of Estrogen receptor beta (Q92731 whole entry): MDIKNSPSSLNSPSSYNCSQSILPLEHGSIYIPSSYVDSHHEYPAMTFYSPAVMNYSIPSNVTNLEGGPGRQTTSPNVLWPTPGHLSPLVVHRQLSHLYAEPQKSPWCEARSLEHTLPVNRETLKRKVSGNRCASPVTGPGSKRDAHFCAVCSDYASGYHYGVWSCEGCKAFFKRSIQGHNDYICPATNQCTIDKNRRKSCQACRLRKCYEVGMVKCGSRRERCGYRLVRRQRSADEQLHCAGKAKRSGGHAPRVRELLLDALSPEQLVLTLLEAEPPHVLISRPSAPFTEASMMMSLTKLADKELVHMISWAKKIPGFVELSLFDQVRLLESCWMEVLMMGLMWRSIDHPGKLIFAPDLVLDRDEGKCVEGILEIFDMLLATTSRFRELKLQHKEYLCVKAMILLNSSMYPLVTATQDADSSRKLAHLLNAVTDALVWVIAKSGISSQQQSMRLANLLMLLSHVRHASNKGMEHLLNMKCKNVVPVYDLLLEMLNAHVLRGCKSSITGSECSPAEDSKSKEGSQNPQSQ
# [6] = target: Sodium-dependent noradrenaline transporter (Homo sapiens, UniProt P23975); assay: DRUGMATRIX: Norepinephrine Transporter radioligand binding (ligand: [125I] RTI-55); assay type: cell membranes, MDCK, Membrane; details: Not Active = under 50% inhibition at 10 µM; for IC50: mdck
# Sequence of Sodium-dependent noradrenaline transporter (P23975 whole entry): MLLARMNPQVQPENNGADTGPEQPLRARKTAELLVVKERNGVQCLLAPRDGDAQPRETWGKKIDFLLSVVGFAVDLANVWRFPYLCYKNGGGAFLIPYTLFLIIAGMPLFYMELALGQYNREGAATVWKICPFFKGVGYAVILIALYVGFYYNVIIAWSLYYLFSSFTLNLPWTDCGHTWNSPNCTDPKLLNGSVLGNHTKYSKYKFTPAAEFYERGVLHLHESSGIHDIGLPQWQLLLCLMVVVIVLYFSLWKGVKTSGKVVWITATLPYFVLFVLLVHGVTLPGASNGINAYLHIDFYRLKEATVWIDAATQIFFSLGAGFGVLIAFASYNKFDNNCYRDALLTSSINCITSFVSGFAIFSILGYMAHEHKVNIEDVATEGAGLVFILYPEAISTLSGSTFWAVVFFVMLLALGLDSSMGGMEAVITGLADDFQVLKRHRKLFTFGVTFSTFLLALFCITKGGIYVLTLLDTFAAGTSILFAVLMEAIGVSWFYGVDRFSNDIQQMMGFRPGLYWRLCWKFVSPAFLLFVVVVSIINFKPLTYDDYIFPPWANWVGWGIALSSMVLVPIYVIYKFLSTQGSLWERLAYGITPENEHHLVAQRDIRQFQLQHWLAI
# Sequence of Vasopressin V1a receptor (P37288 whole entry): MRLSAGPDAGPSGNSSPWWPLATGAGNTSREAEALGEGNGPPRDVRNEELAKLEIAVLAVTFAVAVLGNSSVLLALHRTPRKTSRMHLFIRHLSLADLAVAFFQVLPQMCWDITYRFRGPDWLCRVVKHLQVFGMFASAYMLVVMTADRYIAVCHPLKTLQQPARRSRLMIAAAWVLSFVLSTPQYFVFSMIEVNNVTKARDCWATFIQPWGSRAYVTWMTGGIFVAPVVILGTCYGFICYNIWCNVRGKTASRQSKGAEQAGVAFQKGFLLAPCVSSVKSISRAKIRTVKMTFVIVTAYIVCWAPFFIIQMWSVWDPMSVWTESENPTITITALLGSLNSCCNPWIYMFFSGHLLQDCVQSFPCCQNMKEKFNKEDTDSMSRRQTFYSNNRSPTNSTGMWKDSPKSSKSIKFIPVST
Compound,IC50 (Vasopressin V1a receptor),IC50 (Cytochrome P450 1A2),Ki (Cytochrome P450 1A2),IC50 [1],IC50 (Melanocortin receptor 4),IC50 [2],IC50 [3],Ki [3],IC50 [4],IC50 (Thromboxane-A synthase),IC50 [5],Ki [5],IC50 (Estrogen receptor beta),IC50 [6],pIC50 (Thromboxane-A synthase; read-out: IC50),pIC50 ([6]; read-out: IC50),pKi ([6]; read-out: Ki)
CC1=C(CC(=O)O)c2cc(F)ccc2/C1=C\c1ccc([S+](C)[O-])cc1 (centres undefined),Not Active,Not Active,Not Active,Not Active,Not Active,Not Active,Not Active,Not Active,Not Active,Not Active,Not Active,Not Active,Not Active,Not Active,–,–,–
N[C@H](CSC(=S)NCc1ccccc1)C(=O)O,Not Active,Not Active,Not Active,Not Active,Not Active,Not Active,Not Active,Not Active,Not Active,Not Active,Not Active,Not Active,Not Active,Not Active,–,–,–
CC(=O)N[C@@H]1[C@H](Oc2c3cc4cc2Oc2ccc(cc2Cl)[C@@H](O[C@@H]2O[C@@H](CO)[C@@H](O)[C@H](O)[C@@H]2NC(C)=O)[C@@H]2NC(=O)[C@H](NC(=O)[C@@H]4NC(=O)[C@H]4NC(=O)[C@@H](Cc5ccc(c(Cl)c5)O3)NC(=O)[C@H](N)c3ccc(O)c(c3)Oc3cc(O)cc4c3)c3ccc(O)c(c3)-c3c(O[C@H]4O[C@H](CO)[C@@H](O)[C@@H](O)[C@@H]4O)cc(O)cc3[C@@H](C(=O)O)NC2=O)O[C@@H](CO)[C@@H](O)[C@@H]1O,Not Active,Not Active,Not Active,Not Active,Not Active,Not Active,Not Active,Not Active,Not Active,Not Active,Not Active,Not Active,Not Active,Not Active,–,–,–
CC(=O)N1CCN(c2ccc(OCC3COC(Cn4ccnc4)(c4ccc(Cl)cc4Cl)O3)cc2)CC1 (centres undefined) [KETOCONAZOLE],Not Active,Not Active,Not Active,Not Active,Not Active,Not Active,Not Active,Not Active,Not Active,–,Not Active,Not Active,Not Active,–,5.66,4.62,4.62
COCCCOc1ccnc(C[S+]([O-])c2nc3ccccc3[nH]2)c1C (centres undefined) [RABEPRAZOLE],Not Active,Not Active,Not Active,Not Active,Not Active,Not Active,Not Active,Not Active,Not Active,Not Active,Not Active,Not Active,Not Active,Not Active,–,–,–
CNC(=C[N+](=O)[O-])NCCSCc1ccc(CN(C)C)o1 [RANITIDINE],Not Active,Not Active,Not Active,Not Active,Not Active,Not Active,Not Active,Not Active,Not Active,Not Active,Not Active,Not Active,Not Active,Not Active,–,–,–
CO[C@H]1/C=C/O[C@@]2(C)Oc3c(C)c(O)c4c(c3C2=O)C2=NC3(CCN(CC(C)C)CC3)NC2=C(NC(=O)/C(C)=C\C=C\[C@H](C)[C@H](O)[C@@H](C)[C@@H](O)[C@@H](C)[C@H](OC(C)=O)[C@@H]1C)C4=O [RIFABUTIN],Not Active,Not Active,Not Active,Not Active,Not Active,Not Active,Not Active,Not Active,Not Active,Not Active,Not Active,Not Active,Not Active,Not Active,–,–,–
